Reference: patent US20070128217A1 (priority 2003, published 2007)

Key:
[1] = tested on: control sera (pooled serum of ten healthy LUMC hospital workers; commercial negative donor pooled serum from the Dutch bloodbank); type: binding, human; set-up: Binding of Control serum LUMC to linear peptides / Binding of Control serum Blood-bank to linear peptides / Binding of Control serum LUMC to looped peptides / Binding of Control Serum Blood-Bank to Looped peptides / Binding of Control serum LUMC to linear peptides of the protein M of SARS-CoV Urbani / Binding of Control serum Blood-bank to linear peptides of the protein M of SARS-CoV Urbani / Binding of Control serum LUMC to looped peptides of the protein M of SARS-CoV Urbani / Binding of Control Serum Blood-Bank to Looped peptides of the protein M of SARS-CoV Urbani: unit not given here
[2] = tested on: antibodies in sera from SARS patients (sera 1a, 1b, 2, 6, 37, 62, London, SARS-yellow, SARS-green); type: binding, human; set-up: Binding of serum 6 to linear peptides of protein X1 of SARS-CoV Urbani / Binding of serum 37 to linear peptides of protein X1 of SARS-CoV Urbani / Binding of serum 6 to looped/cyclic peptide (PEPSCAN-ELISA) / Binding of serum 37 to looped/cyclic peptide (PEPSCAN-ELISA) / Binding of serum 37 to looped/cyclic peptides of protein X1 of SARS-CoV Urbani / Binding of serum 6 to linear peptides of protein X2 / Binding of serum 37 to linear peptides of protein X2 / Binding of serum 37 to looped/cyclic peptides of protein X2 of SARS-CoV Urbani / Binding of serum 6 to linear peptides of protein M of SARS-CoV Urbani / Binding of serum 37 to linear peptides of protein M of SARS-CoV Urbani / Binding of serum 6 to looped/cyclic peptides of protein M of SARS-CoV Urbani / Binding of serum 37 to looped/cyclic peptides of protein M of SARS-CoV Urbani / Binding of serum 6 to linear peptides of protein X3 of SARS-CoV Urbani / Binding of serum 37 to linear peptides of protein X3 of SARS-CoV Urbani / Binding of serum 37 to looped/cyclic peptides of protein X3 of SARS-CoV Urbani / Binding of serum 6 to linear peptides of protein X4 of SARS-CoV Urbani / Binding of serum 37 to linear peptides of protein X4 of SARS-CoV Urbani / Binding of serum 37 to looped/cyclic peptides of protein X4 of SARS-CoV Urbani / Binding of serum 6 to linear peptides of protein X5 of SARS-CoV Urbani / Binding of serum 37 to linear peptides of protein X5 of SARS-CoV Urbani / Binding of serum 37 to looped/cyclic peptides of protein X5 of SARS-CoV Urbani / Binding of serum 6 to linear peptides of protein N of SARS-CoV Urbani / Binding of serum 37 to linear peptides of protein N of SARS-CoV Urbani / Binding of serum 6 to linear peptide (PEPSCAN-ELISA) / Binding of serum 1a to looped/cyclic peptides of protein N of SARS-CoV Urbani / Binding of serum 1b to looped/cyclic peptides of protein N of SARS-CoV Urbani / Binding of serum 2 to looped/cyclic peptides of protein N of SARS-CoV Urbani / Binding of serum 6 to looped/cyclic peptides of protein N of SARS-CoV Urbani / Binding of serum 37 to looped/cyclic peptides of protein N of SARS-CoV Urbani / Binding of serum 62 to looped/cyclic peptides of protein N of SARS-CoV Urbani / Binding of serum London to looped/cyclic peptides of protein N of SARS-CoV Urbani / Binding of serum SARS-green to looped/cyclic peptides of protein N of SARS-CoV Urbani: unit not given here
[3] = tested on: rabbit serum obtained by immunizing a rabbit with the SARS-CoV strain Frankfurt 1; type: binding; set-up: Binding of a rabbit serum to linear peptides / Binding of a rabbit serum to looped peptides / Rabbit serum linear peptides / Rabbit serum looped peptides / Binding of a rabbit serum to linear peptides of protein N of SARS-CoV Urbani (Rabbit serum linear peptides) / Binding of a rabbit serum to looped/cyclic peptides of protein N of SARS-CoV Urbani (Rabbit serum looped peptides): unit not given here

Question: Which “Binding of Control Serum Blood-Bank to Looped peptides” value [1] does the source give for WLVIGVAFLAVFQSA here?
Answer: The value was 0.5.

Question: What about the “Binding of Control serum Blood-bank to linear peptides” value [1] of the same sequence?
Answer: The value was 0.6.

Question: And the “Binding of Control serum LUMC to linear peptides” value [1]?
Answer: The value was 0.6.

Question: What about the “Binding of Control serum LUMC to looped peptides” value [1] of the same sequence?
Answer: The value was 0.5.

Question: What about the “Binding of serum 1a to linear peptides of protein X1 of SARS-CoV Urbani” value [2] of the same sequence?
Answer: Its value is 0.6.

Question: And the “Binding of serum 1a to looped/cyclic peptide (PEPSCAN-ELISA)” value [2]?
Answer: Its value is 0.5.

Question: What about the “Binding of serum 1b to linear peptides of protein X1 of SARS-CoV Urbani” value [2] of the same sequence?
Answer: Its value is 0.5.

Question: And the “Binding of serum 1b to looped/cyclic peptide (PEPSCAN-ELISA)” value [2]?
Answer: The value was 0.3.

Question: What about the “Binding of serum 2 to linear peptides of protein X1 of SARS-CoV Urbani” value [2] of the same sequence?
Answer: Its value is 0.5.

Question: And the “Binding of serum 2 to looped/cyclic peptide (PEPSCAN-ELISA)” value [2]?
Answer: Its value is 0.4.

Question: What about the “Binding of serum 6 to linear peptides of protein X1 of SARS-CoV Urbani” value [2] of the same sequence?
Answer: Its value is 0.4.

Question: What about the “Binding of serum 6 to looped/cyclic peptide (PEPSCAN-ELISA)” value [2] of the same sequence?
Answer: The value was 0.2.

Question: What about the “Binding of serum 37 to linear peptides of protein X1 of SARS-CoV Urbani” value [2] of the same sequence?
Answer: Its value is 0.7.

Question: What about the “Binding of serum 37 to looped/cyclic peptide (PEPSCAN-ELISA)” value [2] of the same sequence?
Answer: Its value is 0.5.

Question: And the “Binding of serum 62 to linear peptides of protein X1 of SARS-CoV Urbani” value [2]?
Answer: Its value is 0.6.

Question: What about the “Binding of serum 62 to looped/cyclic peptide (PEPSCAN-ELISA)” value [2] of the same sequence?
Answer: Its value is 0.5.

Question: What about the “Binding of serum London to linear peptides of protein X1 of SARS-CoV Urbani” value [2] of the same sequence?
Answer: The value was 0.3.

Question: What about the “Binding of serum London to looped/cyclic peptide (PEPSCAN-ELISA)” value [2] of the same sequence?
Answer: Its value is 0.2.

Question: And the “Binding of serum SARS-green to linear peptides of protein X1 of SARS-CoV Urbani” value [2]?
Answer: The value was 0.3.

Question: What about the “Binding of serum SARS-green to looped/cyclic peptide (PEPSCAN-ELISA)” value [2] of the same sequence?
Answer: The value was 0.2.

Question: And the “Binding of serum SARS-yellow to linear peptides of protein X1 of SARS-CoV Urbani” value [2]?
Answer: The value was 0.4.

Question: What about the “Binding of serum SARS-yellow to looped/cyclic peptide (PEPSCAN-ELISA)” value [2] of the same sequence?
Answer: The value was 0.5.

Question: What about the “Binding of a rabbit serum to linear peptides” value [3] of the same sequence?
Answer: The value was 0.5.

Question: And the “Binding of a rabbit serum to looped peptides” value [3]?
Answer: The value was 0.5.

Question: Which results are given for RPLMESELVIGAVII?
Answer: Binding of Control Serum Blood-Bank to Looped peptides of the protein M of SARS-CoV Urbani [1]: 0.8; Binding of Control serum Blood-bank to linear peptides of the protein M of SARS-CoV Urbani [1]: 0.6; Binding of Control serum LUMC to linear peptides of the protein M of SARS-CoV Urbani [1]: 0.5; Binding of Control serum LUMC to looped peptides of the protein M of SARS-CoV Urbani [1]: 0.8; Binding of serum 1a to linear peptides of protein M of SARS-CoV Urbani [2]: 0.8; Binding of serum 1b to linear peptides of protein M of SARS-CoV Urbani [2]: 0.6; Binding of serum 2 to linear peptides of protein M of SARS-CoV Urbani [2]: 0.7; Binding of serum 6 to linear peptides of protein M of SARS-CoV Urbani [2]: 0.3; Binding of serum 37 to linear peptides of protein M of SARS-CoV Urbani [2]: 0.6; Binding of serum 62 to linear peptides of protein M of SARS-CoV Urbani [2]: 0.9; Binding of serum London to linear peptides of protein M of SARS-CoV Urbani [2]: 0.4; Binding of serum SARS-green to linear peptides of protein M of SARS-CoV Urbani [2]: 0.3; Binding of serum SARS-yellow to linear peptides of protein M of SARS-CoV Urbani [2]: 0.1; Recognition of the peptide by sera of SARS-CoV infected individuals, and form (linear, looped/cyclic) in which it is recognized [2]: recognized in looped/cyclic form; Rabbit serum linear peptides [3]: 0.4; Rabbit serum looped peptides [3]: 0.2

Question: HRMCKYTQSTALQEL was tested. Which “Binding of Control Serum Blood-Bank to Looped peptides” value [1] did it give?
Answer: Its value is 0.8.

Question: And the “Binding of Control serum Blood-bank to linear peptides” value [1]?
Answer: The value was 0.9.

Question: What about the “Binding of Control serum LUMC to linear peptides” value [1] of the same sequence?
Answer: The value was 0.7.

Question: And the “Binding of Control serum LUMC to looped peptides” value [1]?
Answer: Its value is 0.6.

Question: What about the “Binding of serum 1a to linear peptides of protein X2” value [2] of the same sequence?
Answer: Its value is 0.9.

Question: And the “Binding of serum 1a to looped/cyclic peptides of protein X2 of SARS-CoV Urbani” value [2]?
Answer: Its value is 0.6.

Question: And the “Binding of serum 1b to linear peptides of protein X2” value [2]?
Answer: The value was 0.8.

Question: What about the “Binding of serum 1b to looped/cyclic peptides of protein X2 of SARS-CoV Urbani” value [2] of the same sequence?
Answer: The value was 0.6.

Question: And the “Binding of serum 2 to linear peptides of protein X2” value [2]?
Answer: The value was 0.5.

Question: And the “Binding of serum 2 to looped/cyclic peptides of protein X2 of SARS-CoV Urbani” value [2]?
Answer: Its value is 0.4.

Question: What about the “Binding of serum 6 to linear peptides of protein X2” value [2] of the same sequence?
Answer: Its value is 0.5.

Question: What about the “Binding of serum 6 to looped/cyclic peptides of protein X2 of SARS-CoV Urbani” value [2] of the same sequence?
Answer: The value was 1.0.

Question: What about the “Binding of serum 37 to linear peptides of protein X2” value [2] of the same sequence?
Answer: The value was 0.8.

Question: What about the “Binding of serum 37 to looped/cyclic peptides of protein X2 of SARS-CoV Urbani” value [2] of the same sequence?
Answer: The value was 0.5.

Question: What about the “Binding of serum 62 to linear peptides of protein X2” value [2] of the same sequence?
Answer: The value was 0.8.

Question: And the “Binding of serum 62 to looped/cyclic peptides of protein X2 of SARS-CoV Urbani” value [2]?
Answer: The value was 0.6.

Question: And the “Binding of serum London to linear peptides of protein X2” value [2]?
Answer: Its value is 0.5.

Question: What about the “Binding of serum London to looped/cyclic peptides of protein X2 of SARS-CoV Urbani” value [2] of the same sequence?
Answer: Its value is 1.5.

Question: What about the “Binding of serum SARS-green to linear peptides of protein X2” value [2] of the same sequence?
Answer: The value was 0.8.

Question: And the “Binding of serum SARS-green to looped/cyclic peptides of protein X2 of SARS-CoV Urbani” value [2]?
Answer: Its value is 0.5.

Question: And the “Binding of serum SARS-yellow to linear peptides of protein X2” value [2]?
Answer: The value was 0.8.

Question: What about the “Binding of serum SARS-yellow to looped/cyclic peptides of protein X2 of SARS-CoV Urbani” value [2] of the same sequence?
Answer: Its value is 0.5.

Question: What about the “Binding of a rabbit serum to linear peptides” value [3] of the same sequence?
Answer: Its value is 0.3.

Question: What about the “Binding of a rabbit serum to looped peptides” value [3] of the same sequence?
Answer: The value was 0.4.
